Patent US20040234592A1, “Dermatological formulations” (priority 2001, published 2004)

Columns and labels:
[1] = tested on: genes important for skin structure and function; conditions: established models of human skin; cited from earlier work
[2] = tested on: atrophy induced by topical betamethasone; test: Betamethasone-induced skin atrophy in mice, concomitant TriAc; format: in vivo; conditions: concomitant treatment with topical betamethasone

SMILES: O=C(O)Cc1cc(I)c(Oc2ccc(O)c(I)c2)c(I)c1 [TriAc, [4-(4-Hydroxy-3-iodophenoxy)-3,5-diiodophenyl]acetic acid]
- expression of genes important for skin structure and function [1]: regulate expression of several genes
- atrophy (reduction of total collagen and of cross-linking between collagen bundles in the dermis) [2]: totally prevents the atrophy
